From patent US9550811B2, “Peptide scaffold design” (BIONOR IMMUNO AS, priority 2010, dated 2017)
Where no end group is shown, it is not given here. [ ]: non-standard residue; d: D form. Cit = NC(=O)NCCC[C@H](N)C(=O)O

Key:
Test in all cases: REVEAL binding assay
Settings in all cases: score as percentage of the signal generated by the positive control peptide
HLA-B35 = system: HLA-B35
Source text: (§2) HLA-A1, HLA-A2, HLA-A3, HLA-A11, HLA-A24, HLA-A29, HLA-B7, HLA-B8, HLA-B14, HLA-B15, HLA-B27, HLA-B35, HLA-B40.
(§3) The REVEAL™ binding assay determined the ability of each candidate peptide to bind to one or more MHC class I alleles and stabilizing the MHC-peptide complex. […] Detection is based on the presence or absence of the native conformation of the MHC-peptide complex. Each peptide is given a score relative to the positive control peptide, which is a known T cell epitope.

HLA-B15 = system: HLA-B15
Source text: as §2, §3

HLA-B40 = system: HLA-B40
Method in brief: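 Synthetic ninemer peptides were tested for stabilising native MHC class I–peptide complexes, detected by conformation. Score is the signal as a percentage of a known T-cell epitope positive control, with pass/fail call; an intermediate-affinity control peptide checks assay performance.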

HLA-A1 = system: HLA-A1
Procedure: (§4) Binding properties to HLA for the ninemers listed in table 6 were tested for the following HLA-classes:
as §2, §3

HLA-B14 = system: HLA-B14
HLA-B7 = HLA-B7 (Homo sapiens, UniProt P01889)
Method in brief: (§1)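 Synthetic nonamer peptides were tested for their ability to bind and stabilize MHC class I–peptide complexes, detected by the native conformation of the complex. Each peptide is scored relative to a positive-control known T-cell epitope.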

HLA-B27 = HLA-B27 (Homo sapiens, UniProt P01889, D138H/D201E/E176V/E204Q/G107R/H137Y/K202T/N104T/N87E/Q56L/Q94K/R106L/R155S/R180L/S101D/S121N/S48T/Y140D/Y33H/Y91C)
Method in brief: as §1

HLA-A2 = HLA-A2 (Homo sapiens, UniProt P04439, D140Y/D185E/D98H/E176V/E277Q/G131W/G231S/I119V/I121R/I166T/I218V/N151K/N90K/P208A/P217A/Q86G/Q94H/R138H/R169H)
Method in brief: as §1

HLA-A11 = HLA-A11 (Homo sapiens, UniProt P04439, A114D/F33Y/S129P)
Method in brief: as §1

HLA-A3 = HLA-A3 (Homo sapiens, UniProt P04439)
Method in brief: as §1

HLA-A29 = system: HLA-A29
Source text: as §2, §3

HLA-A24 = system: HLA-A24
Procedure: as §4, §2, §3

HLA-B8 = system: HLA-B8
Source text: as §2, §3

Chain of HLA-A3 (P04439 25-299): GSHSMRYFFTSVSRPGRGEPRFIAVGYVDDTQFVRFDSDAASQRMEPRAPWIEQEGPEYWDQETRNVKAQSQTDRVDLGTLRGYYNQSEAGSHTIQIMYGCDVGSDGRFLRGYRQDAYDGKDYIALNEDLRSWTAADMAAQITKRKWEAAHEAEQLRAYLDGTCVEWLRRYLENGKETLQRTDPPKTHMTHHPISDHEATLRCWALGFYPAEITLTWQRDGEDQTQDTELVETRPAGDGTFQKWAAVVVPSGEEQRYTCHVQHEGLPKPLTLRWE
Chain of HLA-A3 (P61769 21-119, further chain): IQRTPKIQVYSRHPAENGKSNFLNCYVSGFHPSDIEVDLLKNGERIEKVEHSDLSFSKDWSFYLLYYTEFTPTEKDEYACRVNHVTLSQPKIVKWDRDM
Chain of HLA-B7 (P61769 21-119): as the sequence (P61769 21-119, further chain) above
Chain of HLA-B7 (P01889 25-299): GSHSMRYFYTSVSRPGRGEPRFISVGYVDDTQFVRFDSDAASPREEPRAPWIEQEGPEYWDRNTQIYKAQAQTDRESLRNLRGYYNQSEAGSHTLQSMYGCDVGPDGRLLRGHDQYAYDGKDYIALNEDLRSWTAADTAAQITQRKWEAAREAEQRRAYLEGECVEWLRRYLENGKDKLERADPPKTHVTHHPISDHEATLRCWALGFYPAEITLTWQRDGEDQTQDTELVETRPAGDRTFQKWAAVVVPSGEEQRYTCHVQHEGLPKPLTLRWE

Substance	REVEAL binding score, HLA-type B35 (HLA-B35) [%]	REVEAL binding score, HLA-type B15 (HLA-B15) [%]	REVEAL binding score, HLA-type B40 (HLA-B40) [%]	REVEAL binding score, HLA-type A1 (HLA-A1) [%]	REVEAL binding score, HLA-type B14 (HLA-B14) [%]	REVEAL binding score, HLA-type B7 (HLA-B7) [%]	REVEAL binding score, HLA-type B27 (HLA-B27) [%]	REVEAL binding score, HLA-type A2 (HLA-A2) [%]	REVEAL binding score, HLA-type A11 (HLA-A11) [%]	REVEAL binding score, HLA-type A3 (HLA-A3) [%]	REVEAL binding score, HLA-type A29 (HLA-A29) [%]	REVEAL binding score, HLA-type A24 (HLA-A24) [%]	REVEAL binding score, HLA-type B8 (HLA-B8) [%]
YIPLVGAPL	99.81	54.57	30.22	21.80	0.13	41.87	0.69	35.00	3.54	5.29	31.09	4.51	33.10
[Cit]IGVRAT[Cit]R	8.51	14.45	18.45	19.68	0.17	14.59	0.86	8.17	8.27	25.16	16.67	0.50	12.09
IVGGVYLLP	2.68	15.00	19.83	22.11	1.65	24.16	0.68	6.78	3.10	1.88	12.38	0.30	11.48
YLPAVGAPI	2.03	49.63	64.34	15.76	0.12	7.70	0.51	75.80	3.07	2.58	28.40	4.65	17.92
DLMGYIPLV	2.49	7.67	39.33	16.67	0.23	4.84	1.05	103.34	5.01	4.66	25.64	1.14	22.65
IRVIAHGLR	0.66	8.99	26.45	15.82	0.10	3.50	9.37	4.83	2.50	3.58	23.19	0.50	13.34
ITFSIYLIV	12.30	6.68	78.84	9.89	1.53	4.32	4.79	43.08	5.31	1.66	24.10	0.77	11.38
NLPGCSFSI	5.31	3.11	60.68	13.15	0.36	1.54	3.37	47.28	3.47	8.15	22.34	85.91	9.89
